# Test results taken from PubChem BioAssay (NCI).
#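 Compound exposure: 48 hours, 5 concentrations, 96-well plates. Definition used: TGI = concentration required for complete inhibition of growth.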
# Key:
# Assay in all cases: DTP human tumour cell line panel, 48 h
# UO-31 renal = tested on: UO-31 renal
# 786-0 renal = tested on: 786-0 renal
# SF-539 CNS = tested on: SF-539 CNS
# HL-60(TB) leukemia = tested on: HL-60(TB) leukemia
# NCI-H23 lung = tested on: NCI-H23 lung
# A549 NSCLC = tested on: A549 NSCLC
# T-47D breast = tested on: T-47D breast
# K-562 leukemia = tested on: K-562 leukemia
# SK-MEL-2 melanoma = tested on: SK-MEL-2 melanoma
# SN12C renal = tested on: SN12C renal
# HT29 colon = tested on: HT29 colon
# DU-145 prostate = tested on: DU-145 prostate
# HCC-2998 colon = tested on: HCC-2998 colon
# OVCAR-5 ovarian = tested on: OVCAR-5 ovarian
# NCI-H226 lung = tested on: NCI-H226 lung
# HCT-15 colon = tested on: HCT-15 colon
# EKVX NSCLC = tested on: EKVX NSCLC
# NCI/ADR-RES ovarian = tested on: NCI/ADR-RES ovarian
# ACHN renal = tested on: ACHN renal
# TK-10 renal = tested on: TK-10 renal
# MDA-N = tested on: MDA-N
# MCF7 breast = tested on: MCF7 breast
# OVCAR-4 ovarian = tested on: OVCAR-4 ovarian
# RPMI-8226 leukemia = tested on: RPMI-8226 leukemia
# COLO 205 colon = tested on: COLO 205 colon
# MDA-MB-231 breast = tested on: MDA-MB-231 breast
# UACC-257 melanoma = tested on: UACC-257 melanoma
# SR leukemia = tested on: SR leukemia
# KM12 colon = tested on: KM12 colon
# M14 melanoma = tested on: M14 melanoma
# A498 renal = tested on: A498 renal
# SK-MEL-28 melanoma = tested on: SK-MEL-28 melanoma
# SW-620 colon = tested on: SW-620 colon
# MALME-3M melanoma = tested on: MALME-3M melanoma
# HOP-62 NSCLC = tested on: HOP-62 NSCLC
# MOLT-4 leukemia = tested on: MOLT-4 leukemia
# SNB-19 CNS = tested on: SNB-19 CNS
# MDA-MB-435 = tested on: MDA-MB-435
# SF-268 CNS = tested on: SF-268 CNS
# SK-MEL-5 melanoma = tested on: SK-MEL-5 melanoma
# UACC-62 melanoma = tested on: UACC-62 melanoma
# U251 CNS = tested on: U251 CNS
# NCI-H460 lung = tested on: NCI-H460 lung
# PC-3 prostate = tested on: PC-3 prostate
# LOX IMVI melanoma = tested on: LOX IMVI melanoma
# HOP-92 NSCLC = tested on: HOP-92 NSCLC
# CCRF-CEM leukemia = tested on: CCRF-CEM leukemia
# OVCAR-8 ovarian = tested on: OVCAR-8 ovarian
# SK-OV-3 ovarian = tested on: SK-OV-3 ovarian
# HS 578T breast = tested on: HS 578T breast
# OVCAR-3 ovarian = tested on: OVCAR-3 ovarian
# SF-295 CNS = tested on: SF-295 CNS
# HCT-116 colon = tested on: HCT-116 colon
# NCI-H522 lung = tested on: NCI-H522 lung
# SNB-75 CNS = tested on: SNB-75 CNS
# RXF 393 renal = tested on: RXF 393 renal
# IGROV1 ovarian = tested on: IGROV1 ovarian
compound,measurement,setting,value
Oc1ccc(O)c(Cc2ccccc2)c1,TGI,UO-31 renal,28.4 µM
same,TGI,786-0 renal,33.7 µM
same,TGI,SF-539 CNS,23 µM
same,TGI,HL-60(TB) leukemia,4.14 µM
same,TGI,NCI-H23 lung,> 100 µM
same,TGI,A549 NSCLC,> 100 µM
same,TGI,T-47D breast,11.8 µM
same,TGI,K-562 leukemia,25.8 µM
same,TGI,SK-MEL-2 melanoma,37.3 µM
same,TGI,SN12C renal,38.6 µM
same,TGI,HT29 colon,> 100 µM
same,TGI,DU-145 prostate,22.8 µM
same,TGI,HCC-2998 colon,> 100 µM
same,TGI,OVCAR-5 ovarian,> 100 µM
same,TGI,NCI-H226 lung,57.2 µM
same,TGI,HCT-15 colon,29.1 µM
same,TGI,EKVX NSCLC,> 100 µM
same,TGI,NCI/ADR-RES ovarian,42.9 µM
same,TGI,ACHN renal,28.7 µM
same,TGI,TK-10 renal,51.3 µM
same,TGI,MDA-N,41.5 µM
same,TGI,MCF7 breast,29.4 µM
same,TGI,OVCAR-4 ovarian,27.2 µM
same,TGI,RPMI-8226 leukemia,21.3 µM
same,TGI,COLO 205 colon,32.6 µM
same,TGI,MDA-MB-231 breast,46.6 µM
same,TGI,UACC-257 melanoma,99.5 µM
same,TGI,SR leukemia,14.5 µM
same,TGI,KM12 colon,65.2 µM
same,TGI,M14 melanoma,73.9 µM
same,TGI,A498 renal,> 100 µM
same,TGI,SK-MEL-28 melanoma,> 100 µM
same,TGI,SW-620 colon,56.9 µM
same,TGI,MALME-3M melanoma,88.9 µM
same,TGI,HOP-62 NSCLC,60.3 µM
same,TGI,MOLT-4 leukemia,22.8 µM
same,TGI,SNB-19 CNS,> 100 µM
same,TGI,MDA-MB-435,42 µM
same,TGI,SF-268 CNS,27.8 µM
same,TGI,SK-MEL-5 melanoma,37.9 µM
same,TGI,UACC-62 melanoma,56.1 µM
same,TGI,U251 CNS,45.8 µM
same,TGI,NCI-H460 lung,49.5 µM
same,TGI,PC-3 prostate,> 100 µM
same,TGI,LOX IMVI melanoma,41 µM
same,TGI,HOP-92 NSCLC,35.6 µM
same,TGI,CCRF-CEM leukemia,> 100 µM
same,TGI,OVCAR-8 ovarian,33.9 µM
same,TGI,SK-OV-3 ovarian,> 100 µM
same,TGI,HS 578T breast,> 100 µM
same,TGI,OVCAR-3 ovarian,7.8 µM
same,TGI,SF-295 CNS,> 100 µM
CC1(CO)COC(C)(C)OC1,TGI,UO-31 renal,> 100 µM
same,TGI,NCI-H23 lung,> 100 µM
same,TGI,A549 NSCLC,> 100 µM
same,TGI,T-47D breast,> 100 µM
same,TGI,SN12C renal,> 100 µM
same,TGI,HT29 colon,> 100 µM
same,TGI,DU-145 prostate,> 100 µM
same,TGI,HCT-116 colon,> 100 µM
same,TGI,HCC-2998 colon,> 100 µM
same,TGI,NCI-H226 lung,> 100 µM
same,TGI,HCT-15 colon,> 100 µM
same,TGI,NCI/ADR-RES ovarian,> 100 µM
same,TGI,ACHN renal,> 100 µM
same,TGI,TK-10 renal,> 100 µM
same,TGI,NCI-H522 lung,> 100 µM
same,TGI,MDA-N,> 100 µM
same,TGI,MCF7 breast,> 100 µM
same,TGI,OVCAR-4 ovarian,> 100 µM
same,TGI,COLO 205 colon,> 100 µM
same,TGI,MDA-MB-231 breast,> 100 µM
same,TGI,UACC-257 melanoma,> 100 µM
same,TGI,SR leukemia,> 100 µM
same,TGI,SNB-75 CNS,> 100 µM
same,TGI,KM12 colon,> 100 µM
same,TGI,A498 renal,> 100 µM
same,TGI,SK-MEL-28 melanoma,> 100 µM
same,TGI,SW-620 colon,> 100 µM
same,TGI,MOLT-4 leukemia,> 100 µM
same,TGI,SNB-19 CNS,> 100 µM
same,TGI,MDA-MB-435,> 100 µM
same,TGI,SF-268 CNS,> 100 µM
same,TGI,SK-MEL-5 melanoma,> 100 µM
same,TGI,RXF 393 renal,> 100 µM
same,TGI,U251 CNS,> 100 µM
same,TGI,NCI-H460 lung,> 100 µM
same,TGI,PC-3 prostate,> 100 µM
same,TGI,LOX IMVI melanoma,> 100 µM
same,TGI,HOP-92 NSCLC,> 100 µM
same,TGI,CCRF-CEM leukemia,> 100 µM
same,TGI,OVCAR-8 ovarian,> 100 µM
same,TGI,SK-OV-3 ovarian,> 100 µM
same,TGI,HS 578T breast,> 100 µM
same,TGI,OVCAR-3 ovarian,> 100 µM
same,TGI,SF-295 CNS,> 100 µM
CC12CP(=O)(c3ccccc3)CC1c1ccccc1C2c1ccccc1 (stereo unspecified),TGI,UO-31 renal,30.4 µM
same,TGI,786-0 renal,32.8 µM
same,TGI,SF-539 CNS,34.1 µM
same,TGI,HL-60(TB) leukemia,28.5 µM
same,TGI,NCI-H23 lung,41.8 µM
same,TGI,A549 NSCLC,36.2 µM
same,TGI,T-47D breast,37.5 µM
same,TGI,K-562 leukemia,25.5 µM
same,TGI,SK-MEL-2 melanoma,49.4 µM
same,TGI,SN12C renal,32.2 µM
same,TGI,HT29 colon,28.8 µM
same,TGI,DU-145 prostate,64 µM
same,TGI,HCT-116 colon,30.4 µM
same,TGI,HCC-2998 colon,33.9 µM
same,TGI,OVCAR-5 ovarian,> 100 µM
same,TGI,NCI-H226 lung,44.1 µM
same,TGI,HCT-15 colon,27.2 µM
same,TGI,EKVX NSCLC,44.6 µM
same,TGI,NCI/ADR-RES ovarian,32.7 µM
same,TGI,ACHN renal,41.1 µM
same,TGI,TK-10 renal,> 100 µM
same,TGI,MDA-N,33.6 µM
same,TGI,MCF7 breast,> 100 µM
same,TGI,MDA-MB-231 breast,40.1 µM
same,TGI,SR leukemia,29.8 µM
same,TGI,KM12 colon,33.6 µM
same,TGI,M14 melanoma,31.8 µM
same,TGI,A498 renal,> 100 µM
same,TGI,SK-MEL-28 melanoma,75 µM
same,TGI,SW-620 colon,33.2 µM
same,TGI,MALME-3M melanoma,30.3 µM
same,TGI,HOP-62 NSCLC,35.4 µM
same,TGI,MOLT-4 leukemia,31 µM
same,TGI,SNB-19 CNS,> 100 µM
same,TGI,MDA-MB-435,30.1 µM
same,TGI,SF-268 CNS,67 µM
same,TGI,SK-MEL-5 melanoma,55.1 µM
same,TGI,UACC-62 melanoma,> 100 µM
same,TGI,RXF 393 renal,46.6 µM
same,TGI,U251 CNS,36.7 µM
same,TGI,NCI-H460 lung,27.6 µM
same,TGI,PC-3 prostate,27.1 µM
same,TGI,HOP-92 NSCLC,50 µM
same,TGI,CCRF-CEM leukemia,23.5 µM
same,TGI,OVCAR-8 ovarian,28.6 µM
same,TGI,IGROV1 ovarian,46 µM
same,TGI,SK-OV-3 ovarian,> 100 µM
same,TGI,HS 578T breast,> 100 µM
same,TGI,OVCAR-3 ovarian,31.7 µM
same,TGI,SF-295 CNS,29.8 µM
